Measured values: ChEMBL document CHEMBL1255286, “In Vitro activity of the new azole isavuconazole (BAL4815) compared with six other antifungal agents against 162 Cryptococcus neoformans isolates from Cuba” (2008)
Values after ≈ are worked out from the molar mass of the structure shown.

Experiments:
Cryptococcus neoformans [1] = assay: Antimicrobial activity against Cryptococcus neoformans var. grubii obtained from non-AIDS patient by broth microdilution method; assay type: functional
Cryptococcus neoformans [2] = assay: Antimicrobial activity against Cryptococcus neoformans var. grubii clinical isolate by broth microdilution method; assay type: functional
[3] = system: Cryptococcus albidosimilis; assay: Antimicrobial activity against Cryptococcus albidosimilis by broth microdilution method; assay type: functional; settings: Naganishia albidosimilis
Cryptococcus neoformans [4] = assay: Antimicrobial activity against Cryptococcus neoformans var. grubii by broth microdilution method; assay type: functional
Cryptococcus neoformans [5] = assay: Antimicrobial activity against Cryptococcus neoformans var. grubii obtained from AIDS patient by broth microdilution method; assay type: functional
[6] = system: Cryptococcus gattii species complex; assay: Antimicrobial activity against Cryptococcus gattii by broth microdilution method; assay type: functional, Cryptococcus bacillisporus
Naganishia albida = assay: Antimicrobial activity against Cryptococcus albidus by broth microdilution method; assay type: functional

Structure (SMILES) | MIC50 (Cryptococcus neoformans [1]) | MIC90 (Cryptococcus neoformans [1]) | MIC50 (Cryptococcus neoformans [2]) | MIC90 (Cryptococcus neoformans [2]) | MIC [3] | MIC50 [3] | MIC90 [3] | MIC (Cryptococcus neoformans [4]) | MIC50 (Cryptococcus neoformans [4]) | MIC90 (Cryptococcus neoformans [4]) | MIC50 (Cryptococcus neoformans [5]) | MIC90 (Cryptococcus neoformans [5]) | MIC [6] | MIC50 [6] | MIC90 [6] | MIC (Naganishia albida) | MIC50 (Naganishia albida) | MIC90 (Naganishia albida)
CC[C@@H]([C@H](C)O)n1ncn(-c2ccc(N3CCN(c4ccc(OC[C@@H]5CO[C@@](Cn6cncn6)(c6ccc(F)cc6F)C5)cc4)CC3)cc2)c1=O [POSACONAZOLE] | 0.063 µg/mL (≈ 0.0899 µM) | 0.125 µg/mL (≈ 0.178 µM) | 0.004 µg/mL (≈ 0.00571 µM) | 0.016 µg/mL (≈ 0.0228 µM) | 0.016 µg/mL (≈ 0.0228 µM) | 0.31 µg/mL (≈ 0.442 µM) | 0.63 µg/mL (≈ 0.899 µM) | 0.016 µg/mL (≈ 0.0228 µM) | 0.31 µg/mL (≈ 0.442 µM) | 0.63 µg/mL (≈ 0.899 µM) | 0.031 µg/mL (≈ 0.0442 µM) | 0.125 µg/mL (≈ 0.178 µM) | 0.016 µg/mL (≈ 0.0228 µM) | 0.31 µg/mL (≈ 0.442 µM) | 0.63 µg/mL (≈ 0.899 µM) | 0.016 µg/mL (≈ 0.0228 µM) | 0.31 µg/mL (≈ 0.442 µM) | 0.63 µg/mL (≈ 0.899 µM)
C[C@@H](c1ncncc1F)[C@](O)(Cn1cncn1)c1ccc(F)cc1F [VORICONAZOLE] | 0.063 µg/mL (≈ 0.18 µM) | 0.063 µg/mL (≈ 0.18 µM) | 0.031 µg/mL (≈ 0.0887 µM) | 0.125 µg/mL (≈ 0.358 µM) |  | 0.063 µg/mL (≈ 0.18 µM) | 0.25 µg/mL (≈ 0.716 µM) |  | 0.063 µg/mL (≈ 0.18 µM) | 0.25 µg/mL (≈ 0.716 µM) | 0.031 µg/mL (≈ 0.0887 µM) | 0.125 µg/mL (≈ 0.358 µM) |  | 0.063 µg/mL (≈ 0.18 µM) | 0.25 µg/mL (≈ 0.716 µM) |  | 0.063 µg/mL (≈ 0.18 µM) | 0.25 µg/mL (≈ 0.716 µM)
C[C@@H](c1nc(-c2ccc(C#N)cc2)cs1)[C@](O)(Cn1cncn1)c1cc(F)ccc1F [ISAVUCONAZOLE] | 0.008 µg/mL (≈ 0.0183 µM) | 0.031 µg/mL (≈ 0.0709 µM) | 0.004 µg/mL (≈ 0.00914 µM) | 0.016 µg/mL (≈ 0.0366 µM) |  | 0.004 µg/mL (≈ 0.00914 µM) | 0.016 µg/mL (≈ 0.0366 µM) |  | 0.004 µg/mL (≈ 0.00914 µM) | 0.016 µg/mL (≈ 0.0366 µM) | 0.008 µg/mL (≈ 0.0183 µM) | 0.016 µg/mL (≈ 0.0366 µM) |  | 0.004 µg/mL (≈ 0.00914 µM) | 0.016 µg/mL (≈ 0.0366 µM) |  | 0.004 µg/mL (≈ 0.00914 µM) | 0.016 µg/mL (≈ 0.0366 µM)
Nc1nc(=O)[nH]cc1F [FLUCYTOSINE] | 2 µg/mL (≈ 15.5 µM) | 4 µg/mL (≈ 31 µM) | 4 µg/mL (≈ 31 µM) | 8 µg/mL (≈ 62 µM) |  | 4 µg/mL (≈ 31 µM) | 8 µg/mL (≈ 62 µM) |  | 4 µg/mL (≈ 31 µM) | 8 µg/mL (≈ 62 µM) | 4 µg/mL (≈ 31 µM) | 8 µg/mL (≈ 62 µM) |  | 4 µg/mL (≈ 31 µM) | 8 µg/mL (≈ 62 µM) |  | 4 µg/mL (≈ 31 µM) | 8 µg/mL (≈ 62 µM)
OC(Cn1cncn1)(Cn1cncn1)c1ccc(F)cc1F [FLUCONAZOLE] |  |  | 2 µg/mL (≈ 6.53 µM) | 4 µg/mL (≈ 13.1 µM) |  | 4 µg/mL (≈ 13.1 µM) | 8 µg/mL (≈ 26.1 µM) |  | 4 µg/mL (≈ 13.1 µM) | 8 µg/mL (≈ 26.1 µM) | 2 µg/mL (≈ 6.53 µM) | 2 µg/mL (≈ 6.53 µM) |  | 4 µg/mL (≈ 13.1 µM) | 8 µg/mL (≈ 26.1 µM) |  | 4 µg/mL (≈ 13.1 µM) | 8 µg/mL (≈ 26.1 µM)
C[C@@H]1[C@H](O)[C@@H](C)/C=C/C=C/C=C/C=C/C=C/C=C/C=C/[C@H](O[C@@H]2O[C@H](C)[C@@H](O)[C@H](N)[C@@H]2O)C[C@@H]2O[C@](O)(C[C@@H](O)C[C@@H](O)[C@H](O)CC[C@@H](O)C[C@@H](O)CC(=O)O[C@H]1C)C[C@H](O)[C@H]2C(=O)O [AMPHOTERICIN B] |  |  | 0.25 µg/mL (≈ 0.271 µM) | 0.25 µg/mL (≈ 0.271 µM) |  | 0.25 µg/mL (≈ 0.271 µM) | 0.5 µg/mL (≈ 0.541 µM) |  | 0.25 µg/mL (≈ 0.271 µM) | 0.5 µg/mL (≈ 0.541 µM) | 0.25 µg/mL (≈ 0.271 µM) | 0.25 µg/mL (≈ 0.271 µM) |  | 0.25 µg/mL (≈ 0.271 µM) | 0.5 µg/mL (≈ 0.541 µM) |  | 0.25 µg/mL (≈ 0.271 µM) | 0.5 µg/mL (≈ 0.541 µM)
CCC(C)n1ncn(-c2ccc(N3CCN(c4ccc(OCC5COC(Cn6cncn6)(c6ccc(Cl)cc6Cl)O5)cc4)CC3)cc2)c1=O (stereo not drawn) [ITRACONAZOLE] | 0.031 µg/mL (≈ 0.0439 µM) | 0.063 µg/mL (≈ 0.0893 µM) | 0.031 µg/mL (≈ 0.0439 µM) | 0.25 µg/mL (≈ 0.354 µM) |  | 0.063 µg/mL (≈ 0.0893 µM) | 0.25 µg/mL (≈ 0.354 µM) |  | 0.063 µg/mL (≈ 0.0893 µM) | 0.25 µg/mL (≈ 0.354 µM) | 0.031 µg/mL (≈ 0.0439 µM) | 0.125 µg/mL (≈ 0.177 µM) |  | 0.063 µg/mL (≈ 0.0893 µM) | 0.25 µg/mL (≈ 0.354 µM) |  | 0.063 µg/mL (≈ 0.0893 µM) | 0.25 µg/mL (≈ 0.354 µM)
